The values that follow come from US6200966A, “Compositions for inhibiting airway wall inflammation” (Amrad Operations Pty. Ltd., priority 1996, dated 2001).

In experiment [1] the test system is guinea-pig peritoneal macrophages. The experiment in a line: Prostacyclin (6-oxo-PGF1α) release in peritoneal macrophages. It counts as cell-based. As to the method: Cells were incubated with stimuli including the chemotactic tripeptide, formyl methiony leucyl Phenylalanine (fMLP, 100 nM), Zymosan (400 μg/ml) or phorbol myristate acetate (PMA, 100 nM) for 30 min in the presence or absence of 2-methoxyestradiol (10 μM) added 15 min before the stimuli. […] All individual incubations were carried out in duplicate and experiments were carried out in macrophages from 5 guinea-pigs.

For the next experiment, the system named is adherent monocytes. In words: Tetramethyl benzidine oxidation in adherent monocytes. Format: cell-based, human. Conditions: PMA (1 μM) or zymosan (400 μg/ml); 10 μM.
Experiment [2] relates to human cultured airway smooth muscle cells. In words: Cell counting (increase in cell number). It counts as cell-based. Particulars: FCS (1%) or bFGF (300 pM); 3 μM; 48 h. As to the method: Human bronchial airway smooth muscle was obtained from macroscopically normal lung resection specimens from lung transplant donors or recipients provided by the Alfred Hospital (Melbourne). Cultures were prepared as previously described in detail (Tomlinson et al., 1994). […]
The progression of airway smooth muscle cells through the cell-cycle to mitosis was determined by measuring changes in cell number in experiments of analogous design to those used for DNA synthesis, except that the incubations with mitogen were continued for 48 hours. […] At the end of this period, a further 200 μl of PBS (20% FCS) was added to prevent cell lysis by trypsin and cells were counted directly in a haemocytometer.
Each treatment in an individual experiment was carried out in quadruplicate for DNA and protein synthesis experiments. […] Results are presented as grouped data from multiple cultures and are expressed as mean ±S. E. of n cultures. The degree of increment was calculated by dividing the response of treated wells by that of the control wells on the same 24-well plate. The grouped data was analysed by paired t-test after normalisation by log transformation. […]

The test system of experiment [3] is Human polymorphonuclear leukocytes. In words: Tetramethylbenzidine oxidation (myeloperoxidase release/activity) in leukocytes. Conditions: for Tetramethylbenzidine oxidation: 2-methoxyestradiol 3 μM.
Experiment [4] has as its system human cultured airway smooth muscle cells. The experiment in a line: Protein synthesis: [3H]-leucine incorporation. Conditions: for activity at 0.3 µM / activity at 1 µM / activity at 3 µM / activity at 10 µM: mean ± SEM. Format: cell-based.
Setting [5] is: Homo sapiens, 5HT (10 nM)-stimulated cells.
Setting [6] is: Homo sapiens, unstimulated cells.

`COc1cc2c(cc1O)CC[C@@H]1[C@@H]2CC[C@]2(C)[C@@H](O)CC[C@@H]12` [2-methoxyestradiol, 1,3,5[10]-estratriene-2,3,17-triol 2-methylether]: in experiment [1] (Cavia porcellus, Peritoneal macrophage, 0.5 h, PMA (100 nM), read-out: reduction of 6-oxo-PGF1α / prostacyclin response, PMA), the inhibition at 10 µM was determined as 50%. The “6-oxo-PGF1α / prostacyclin generation, fMLP” value in experiment [1] (fMLP (100 nM), 10 μM) is recorded as “completely blocked”. Also, the “oxidation of tetramethyl benzidine in adherent monocytes” value with adherent monocytes is on record as “unaffected”. Moreover, the “increase in cell number” value in experiment [2] is given as “complete inhibition”. Besides, the “oxidation of tetramethyl-benzidine in leukocytes” value in experiment [3] (3 μM, zymosan (400 μg/ml) or fMLP stimulated) was “reduced oxidation of tetramethyl-benzidine”. For the same molecule, in experiment [3] (control (no stimulus), 2×10^6 PMN in 0.5 ml), the Tetramethylbenzidine oxidation is recorded as -0.004 change in absorbance value. The Tetramethylbenzidine oxidation in experiment [3] (fMLP 100 nM (basal 0.057)) is 0.028 change in absorbance value. Besides, in experiment [3] (zymosan 400 μg/ml (basal 0.26)), the Tetramethylbenzidine oxidation is 0.013 change in absorbance value. In addition, the “myeloperoxidase activity in cell-free supernatants” value in experiment [3] (fMLP stimulated leukocytes, highest concentration 10 μM) is on record as “reduced only by the highest concentration”. Further, in experiment [3] (human peripheral blood), the “release of myeloperoxidase from polymorphonuclear leukocytes” value is listed as “inhibits the release of myeloperoxidase”. For the same molecule, in experiment [4] (10 μM, thrombin or bFGF), the “[3H]-leucine incorporation at 10 μM” value was “no significant inhibitory effect”. In experiment [4] (setting [5]), the activity at 0.3 µM amounted to 91 ± 5%, the activity at 1 µM stood at 62 ± 2%, the activity at 3 µM stood at 56 ± 2% and the activity at 10 µM is 51 ± 6%. For the same molecule, in experiment [4] (setting [6]), the activity at 0.3 µM stood at 135 ± 3%, the activity at 1 µM was found to be 84 ± 4%, the activity at 3 µM was 77 ± 3% and the activity at 10 µM is 113 ± 9%. Further, in experiment [4] (Homo sapiens, at 3 μM, thrombin, FCS 1% or bFGF, read-out: maximum percentage reduction of [3H]-leucine incorporation), the inhibition at 3 µM is approximately 30%. In addition, in experiment [4] (Homo sapiens, thrombin (0.3 U/ml), FCS (1% v/v) or bFGF (300 pM), 48 h, read-out: threshold concentration for inhibition of [3H]-leucine incorporation), the minimal effective concentration was determined as 1 µM. The “[3H]-leucine incorporation, compound alone, 10 μM” value in experiment [4] (unstimulated, 10 μM) was “no effect”. Moreover, in experiment [4] (unstimulated, 1 and 3 μM), the “[3H]-leucine incorporation, compound alone, 1 and 3 μM” value is “small inhibitory effects”.
